Source: patent publication US20180042931A1 (Bayer Pharma Aktiengesellschaft, priority 2015, published 2018)

What was measured:
[1] = test system: constitutive active colorectal cancer cell (CRC) Wnt pathway; experiment: Cellular reporter assay, HCT116 cells stably transfected with Super TopFlash vector (HCT116-TOP), luciferase readout; type: cell-based; conditions: Homo sapiens, HCT-116, 36 hours incubation, luciferase expression, average or median values
Description: In order to discover and characterize small molecules which inhibit the constitutive active colorectal cancer cell (CRC) Wnt pathway, a cellular reporter assay was employed. The corresponding assay cell was generated by transfection of the colorectal cancer cell line HCT116 (ATCC, #CCL-247) with the Super TopFlash vector (Morin, Science 275, 1997, 1787-1790; Molenaar et al., Cell 86 (3), 1996, 391-399). The HCT116 cell line is cultivated at 37° C. and 5% CO2 in DMEM/F-12 (Life Technologies, #11320-074), supplemented with 2 mM glutamine, 20 mM HEPES, 1.4 mM pyruvate, 0.15% Na-bicarbonate and 10% foetal bovine serum (GIBCO, #10270), this cancer cell line is pathophysiological relevant since it carries a deletion of position S45 in the β-catenin gene, leading to constitutive active Wnt signaling. Stable transfectants were generated by cotransfection with pcDNA3 and selection of stable transfected cells with 1 mg/mL G418.
(§1) In preparation of the assay, the two cell lines were plated 24 hours before at 10000 cells per well of a 384 micro titre plate (MTP) in 30 μL growth medium. Selective inhibitory activity for small molecules on the mutated Wnt pathway was determined after parallel incubation of both (TOP and FOP) HCT116 reporter cell lines with a compound dilution series from 50 μM to 15 nM in steps of 3.16-fold dilutions in CAFTY buffer (130 mM NaCl, 5 mM KCl, 20 mM HEPES, 1 mM MgCl2, 5 mM NaHCO3, pH 7.4) containing 2 mM Ca^2+ and 0.01% BSA. The compounds were thereby serially prediluted in 100% DMSO and thereafter in addition 50 fold into the CAFTY compound dilution buffer (described above). From this dilution 10 μL were added to the cells in 30 μL growth medium and incubated for 36 hours at 37° C. and 5% CO2. Thereafter luciferase assay buffer (1:1 mixture of luciferase substrate buffer (20 mM Tricine, 2.67 mM MgSO4, 0.1 mM EDTA, 4 mM DTT, 270 μM Coenzyme A, 470 μM Luciferin, 530 μM ATP, ph adjusted to pH 7.8 with a sufficient volume of 5M NaOH) and Triton buffer (30 mL Triton X-100, 115 mL glycerol, 308 mg Dithiothreitol, 4.45 g Na2HPO4.2H2O, 3.03 g TRIS HCl, ad 1I H2O, pH 7.8) was added as equal volume to the compound solution on the cells to determine luciferase expression as a measure of Wnt signaling activity in a luminometer.

[2] = test system: FOP control vector (randomized, non-functional sequence instead of functional TCF elements) in HCT116 cells; experiment: Control reporter assay, HCT116 cells stably transfected with FOP control vector (HCT116-FOP), luciferase readout; type: cell-based; conditions: Homo sapiens, HCT-116, 36 hours incubation, luciferase expression, dilution series up to 50 μM
Description: In a parallel approach, HCT116 cells were cotransfected with the FOP control vector and pcDNA3. The FOP vector is identical to the TOP construct, but it contains instead of functional TCF elements a randomized, non-functional sequence. For this transfection a stable transfected cell line was generated as well.
as §1

SMILES	IC50 [1]	IC50 [2]
Nc1ncc(-c2ccc(NC(=O)c3ccc(OC(F)F)c(NC(=O)CN4CCOCC4)c3)cc2)cn1 [Example 28, N-[4-(2-aminopyrimidin-5-yl)phenyl]-4-(difluoromethoxy)-3-[(morpholin-4-ylacetyl)amino]benzamide]	0.226 µM	39 µM
O=C(CN1CCOCC1)Nc1cc(C(=O)Nc2ccc(-c3cncnc3)cc2)ccc1OC(F)(F)F [Example 8, 3-[(morpholin-4-ylacetyl)amino]-N-[4-(pyrimidin-5-yl)phenyl]-4-(trifluoromethoxy)benzamide]	0.0665 µM	≥ 50 µM
Cc1ccc(C(=O)Nc2ccc(-c3cccnc3F)cc2)cc1NC(=O)C1(N2CCOCC2)CC1 [Example 25, N-[4-(2-fluoropyridin-3-yl)phenyl]-4-methyl-3-({[1-(morpholin-4-yl)cyclopropyl]carbonyl}-amino)benzamide]	0.0207 µM	≥ 50 µM
COc1ccc(NC(=O)c2ccc(-c3ccc(N)nc3)cc2)cc1NC(=O)CN1CCOCC1 [Example 1, 4-(6-aminopyridin-3-yl)-N-{4-methoxy-3-[(morpholin-4-ylacetyl)amino]phenyl}benzamide]	0.625 µM	≥ 50 µM
CN1CCN(CC(=O)Nc2cc(C(=O)Nc3ccc(-c4cccnc4)cc3)ccc2OC(F)(F)F)CC1 [Example 30, 3-{[(4-methylpiperazin-1-yl)acetyl]amino}-N-[4-(pyridin-3-yl)phenyl]-4-(trifluoromethoxy)benzamide]	0.0313 µM	38.5 µM
O=C(CN1CCOCC1)Nc1cc(C(=O)Nc2ccc(-c3cccnc3)cc2)ccc1OC(F)(F)F [Example 18, 3-[(morpholin-4-ylacetyl)amino]-N-[4-(pyridin-3-yl)phenyl]-4-(trifluoromethoxy)benzamide]	0.0787 µM	≥ 50 µM
COc1ncccc1-c1ccc(NC(=O)c2ccc(OC(F)(F)F)c(NC(=O)CN3CCOCC3)c2)cc1 [Example 17, N-[4-(2-methoxypyridin-3-yl)phenyl]-3-[(morpholin-4-ylacetyl)amino]-4-(trifluoromethoxy)-benzamide]	0.285 µM	≥ 50 µM
Nc1ccc(-c2ccc(NC(=O)c3ccc(OC(F)F)c(NC(=O)CN4CCOCC4)c3)cc2)cn1 [Example 29, N-[4-(6-aminopyridin-3-yl)phenyl]-4-(difluoromethoxy)-3-[(morpholin-4-ylacetyl)amino]benzamide]	0.0488 µM	≥ 50 µM

The remaining lines, values ahead:

IC50 [1]	IC50 [2]	SMILES
10.9 µM	≥ 50 µM	COc1ccc(NC(=O)c2ccc(-c3cccnc3)cc2)cc1NC(=O)CN1CCOCC1 [Example 38, N-{4-methoxy-3-[(morpholin-4-ylacetyl)amino]phenyl)-4-(pyridin-3-yl)benzamide]
5.4 µM	≥ 50 µM	O=C(CN1CCOCC1)Nc1cc(C(=O)Nc2ccc(-c3cccnc3F)cc2)ccc1OC(F)F [Example 39, 4-(difluoromethoxy)-N-[4-(2-fluoropyridin-3-yl)phenyl]-3-[(morpholin-4-ylacetyl)amino] benzamide]
23 µM	≥ 50 µM	COc1ccc(NC(=O)c2ccc(-c3cnc(N)nc3)cc2)cc1NC(=O)CN1CCOCC1 [Example 37, 4-(2-aminopyrimidin-5-yl)-N-{4-methoxy-3-[(morpholin-4-ylacetyl)amino]phenyl} benzamide]
0.0318 µM	38.5 µM	CN1CCN(CC(=O)Nc2cc(C(=O)Nc3ccc(-c4cccnc4F)cc3)ccc2OC(F)(F)F)CC1 [Example 31, N-[4-(2-fluoropyridin-3-yl)phenyl]-3-{[(4-methylpiperazin-1-yl)acetyl]amino}-4-(trifluoromethoxy)benzamide]
0.023 µM	≥ 50 µM	O=C(CN1CCOCC1)Nc1cc(C(=O)Nc2ccc(-c3cccnc3)cc2)ccc1OC1CC1 [Example 35, 4-(cyclopropyloxy)-3-[(morpholin-4-ylacetyl)amino]-N-[4-(pyridin-3-yl)phenyl]benzamide]
